Tests used:
α1β2γ2 GABAA receptor = α1β2γ2 GABAA receptor (Homo sapiens (Human), UniProt P14867+P47870); assay: Patch clamp electrophysiology of recombinant α1β2γ2 GABAA receptors in LTK cells; assay type: cell-based; details: 10 μM compound, Qpatch, Ltk cells, GABA EC20 2 μM; for activity at 10 µM: LTK, read-out: α1β2γ2 GABA Qpatch in Ltk (Efficacy at 10 μm)
How it was run: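 Whole-cell voltage clamp at −80 mV, room temperature, in LTK cells stably expressing α1β2γ2 or CHO cells transiently expressing α4β3δ, manual or QPatch. Test article (0.01–10 μM, increasing, 30 s preincubation) then 2 μM GABA (EC20) for 2 s; potentiation = peak current with compound relative to GABA alone ×100.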

α4β3δ GABAA receptor = α4β3δ GABAA receptor (Homo sapiens (Human), UniProt P28472+P48169); assay: Patch clamp electrophysiology of recombinant α4β3δ GABAA receptors in CHO cells; assay type: cell-based; details: 10 μM compound, GABA EC20 2 μM; for activity at 10 µM: manual patch, read-out: α4β3δ GABA Manual Patch in CHO (Efficacy at 10 μM)
Protocol: Cellular electrophysiology is used to measure the pharmacological properties of our GABAA receptor modulators in heterologous cell systems. Each compound is tested for its ability to affect GABA mediated currents at a submaximal agonist dose (GABA EC20=2 μM). LTK cells are stably transfected with the α1β2γ2 subunits of the GABA receptor and CHO cells are transiently transfected with the α4β3δ subunits via the Lipofecatamine method. Cells were passaged at a confluence of about 50-80% and then seeded onto 35 mm sterile culture dishes containing 2 ml culture complete medium without antibiotics or antimycotics. Confluent clusters of cells are electrically coupled (Pritchett et al., 1988). Because responses in distant cells are not adequately voltage clamped and because of uncertainties about the extent of coupling (Verdoorn et al., 1990), cells were cultivated at a density that enables the recording of single cells (without visible connections to other cells).
Whole cell currents were measured with HEKA EPC-10 amplifiers using PatchMaster software or by using the high throughput QPatch platform (Sophion). Bath solution for all experiments contained (in mM): NaCl 137 mM, KCl 4 mM, CaCl2 1.8 mM, MgCl2 1 mM, HEPES 10 mM, D-Glucose 10 mM, pH (NaOH) 7.4. In some cases 0.005% cremophor was also added. Intracellular (pipette) solution contained: KCl 130 mM, MgCl2 1 mM, Mg-ATP 5 mM, HEPES 10 mM, EGTA 5 mM, pH 7.2. During experiments, cells and solutions were maintained at room temperature (19° C.-30° C.). For manual patch clamp recordings, cell culture dishes were placed on the dish holder of the microscope and continuously perfused (1 ml/min) with bath solution. After formation of a Gigaohm seal between the patch electrodes and the cell (pipette resistance range: 2.5 MΩ-6.0 MΩ; seal resistance range: >1 GΩ) the cell membrane across the pipette tip was ruptured to assure electrical access to the cell interior (whole-cell patch-configuration). For experiments using the QPatch system, cells were transferred as suspension to the QPatch system in the bath solution and automated whole cell recordings were performed.
Cells were voltage clamped at a holding potential of −80 mV. For the analysis of test articles, GABA receptors were stimulated by 2 μM GABA after sequential pre-incubation of increasing concentrations of the test article. Pre-incubation duration was 30 s and the duration of the GABA stimulus was 2 s. Test articles were dissolved in DMSO to form stock solutions (10 mM). Test articles were diluted to 0.01, 0.1, 1, and 10 μM in bath solution. All concentrations of test articles were tested on each cell. The relative percentage potentiation was defined as the peak amplitude in response to GABA EC20 in the presence of the test article divided by the peak amplitude in response to GABA EC20 alone, multiplied by 100.

[1] = molecular target: rat brain cortical membranes ([35S]-TBPS binding, GABA receptor complex); assay: Steroid inhibition of [35S]-TBPS binding; details: 3 nM [35S]-TBPS, in the presence of 5 μM GABA
Protocol: TBPS binding assays using rat brain cortical membranes in the presence of 5 μM GABA has been described (Gee et al, J. Pharmacol. Exp. Ther. 1987, 241, 346-353; Hawkinson et al, Mol. Pharmacol. 1994, 46, 977-985; Lewin, A. H et al., Mol. Pharmacol. 1989, 35, 189-194).
Briefly, cortices are rapidly removed following decapitation of carbon dioxide-anesthetized Sprague-Dawley rats (200-250 g). The cortices are homogenized in 10 volumes of ice-cold 0.32 M sucrose using a glass/teflon homogenizer and centrifuged at 1500×g for 10 min at 4° C. The resultant supernatants are centrifuged at 10,000×g for 20 min at 4° C. to obtain the P2 pellets. The P2 pellets are resuspended in 200 mM NaCl/50 mM Na-K phosphate pH 7.4 buffer and centrifuged at 10,000×g for 10 min at 4° C. This washing procedure is repeated twice and the pellets are resuspended in 10 volumes of buffer. Aliquots (100 μL) of the membrane suspensions are incubated with 3 nM [^35S]-TBPS and 5 μL aliquots of test drug dissolved in dimethyl sulfoxide (DMSO) (final 0.5%) in the presence of 5 μM GABA. The incubation is brought to a final volume of 1.0 mL with buffer. […] Filter bound radioactivity is measured by liquid scintillation spectrometry. […]

Compound	activity at 10 µM (α1β2γ2 GABAA receptor) [%]	activity at 10 µM (α4β3δ GABAA receptor) [%]	IC50 [1] [nM]	α1β2γ2 GABA Qpatch in Ltk (Efficacy at 10 μm) (α1β2γ2 GABAA receptor)	α4β3δ GABA Manual Patch in CHO (Efficacy at 10 μM) (α4β3δ GABAA receptor)
C[C@@]1(O)CC[C@H]2[C@H](CC[C@@H]3[C@@H]2CC[C@]2(C)[C@@H](C(=O)Cn4cc5ncncc5n4)CC[C@@H]32)C1 [SA-32]	> 500	> 500			
C[C@@]1(O)CC[C@H]2[C@H](CC[C@@H]3[C@@H]2CC[C@]2(C)[C@@H](C(=O)Cn4cc5cncnc5n4)CC[C@@H]32)C1 [SA-35]	100 to 500	> 500			
C[C@@]1(O)CC[C@H]2[C@H](CC[C@@H]3[C@@H]2CC[C@]2(C)[C@@H](C(=O)Cn4nc5ccc(Cl)cc5n4)CC[C@@H]32)C1 [SA-41]	> 500	100 to 500			
Cc1ccc2nn(CC(=O)[C@H]3CC[C@H]4[C@@H]5CC[C@@H]6C[C@](C)(O)CC[C@@H]6[C@H]5CC[C@]34C)nc2c1 [SA-44]	100 to 500	100 to 500			
C[C@@]1(O)CC[C@H]2[C@H](CC[C@@H]3[C@@H]2CC[C@]2(C)[C@@H](C(=O)Cn4nc5cc(F)c(F)cc5n4)CC[C@@H]32)C1 [SA-53]			10 to 50		
C[C@@]1(O)CC[C@H]2[C@H](CC[C@@H]3[C@@H]2CC[C@]2(C)[C@@H](C(=O)Cn4nc5cc(Cl)cnc5n4)CC[C@@H]32)C1 [SA-57]	> 500	100 to 500			
C[C@@]1(O)CC[C@H]2[C@H](CC[C@@H]3[C@@H]2CC[C@]2(C)[C@@H](C(=O)Cn4nc5cccc(F)c5n4)CC[C@@H]32)C1 [SA-66]	> 500	> 500			
Cc1cccc2nn(CC(=O)[C@H]3CC[C@H]4[C@@H]5CC[C@@H]6C[C@](C)(O)CC[C@@H]6[C@H]5CC[C@]34C)nc12 [SA-69]	100 to 500	100 to 500			
C[C@@]1(O)CC[C@H]2[C@H](CC[C@@H]3[C@@H]2CC[C@]2(C)[C@@H](C(=O)Cn4nc5cccc(Cl)c5n4)CC[C@@H]32)C1 [SA-78]	100 to 500	100 to 500			
C[C@]12CC[C@H]3[C@@H](CC[C@@H]4C[C@@](O)(CF)CC[C@@H]43)[C@@H]1CC[C@@H]2C(=O)Cn1nc2ccccc2n1 [SA-80]	> 500	> 500			
C[C@]12CC[C@H]3[C@@H](CC[C@@H]4C[C@@](O)(CF)CC[C@@H]43)[C@@H]1CC[C@@H]2C(=O)Cn1cc2ncccc2n1 [SA-83]	100 to 500	100 to 500			
COC[C@@]1(O)CC[C@H]2[C@H](CC[C@@H]3[C@@H]2CC[C@]2(C)[C@@H](C(=O)Cn4nc5ccncc5n4)CC[C@@H]32)C1 [SA-125]	> 500	100 to 500			
C[C@@]1(O)CC[C@H]2[C@@H](CC[C@@H]3[C@@H]2CC[C@]2(C)[C@@H](C(=O)Cn4cc5ncccc5n4)CC[C@@H]32)C1 [SB-4]				C (“C” indicates an efficacy value of >500%)	C (“C” indicates an efficacy value of >500%)
C[C@@]1(O)CC[C@H]2[C@@H](CC[C@@H]3[C@@H]2CC[C@]2(C)[C@@H](C(=O)Cn4nc5ccncc5n4)CC[C@@H]32)C1 [SB-8]	> 500	100 to 500			
C[C@@]1(O)CC[C@H]2[C@@H](CC[C@@H]3[C@@H]2CC[C@]2(C)[C@@H](C(=O)Cn4cc5ccncc5n4)CC[C@@H]32)C1 [SB-9]				C (“C” indicates an efficacy value of >500%)	B (“B” indicates an efficacy value of >100-500%)
C[C@]12CC[C@H]3[C@@H](CC[C@H]4C[C@@](O)(CF)CC[C@@H]43)[C@@H]1CC[C@@H]2C(=O)Cn1nc2ccncc2n1 [SB-15]	100 to 500	100 to 500			
COC[C@@]1(O)CC[C@H]2[C@@H](CC[C@@H]3[C@@H]2CC[C@]2(C)[C@@H](C(=O)Cn4cc5ccncc5n4)CC[C@@H]32)C1 [SB-45]	100 to 500	100 to 500			
COC[C@@]1(O)CC[C@H]2[C@@H](CC[C@@H]3[C@@H]2CC[C@]2(C)[C@@H](C(=O)Cn4nc5ccccc5n4)CC[C@@H]32)C1 [SB-50]	10 to 100	100 to 500			
C[C@]12CC[C@H]3[C@@H](CC[C@H]4C[C@@](O)(CF)CC[C@@H]43)[C@@H]1CC[C@@H]2C(=O)Cn1cc2ccc(F)cc2n1 [SG-20]	100 to 500	100 to 500			
